Broadly, the EC50 is the concentration giving half of the maximal effect.

Several values for one entry are separate records, joined by “and”; a condition that tells them apart may be missing. Identical values can stand only once. Activity calls are given as the source filed them.

Assay [1] addresses DNA dC->dU-editing enzyme APOBEC-3A (Homo sapiens, UniProt P31941). The assay can be described thus: Dose Response confirmation of small molecule APOBEC3A DNA Deaminase Inhibitors via a fluorescence-based single-stranded DNA deaminase assay. [Related pubchem assays (depositor defined):AID493011, AID493024]. The class given is functional.
The target in assay [2] is DNA dC->dU-editing enzyme APOBEC-3G (Homo sapiens, UniProt Q9HC16). The format is functional.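 Note: Dose-response counterscreen measuring inhibition of APOBEC3G DNA deaminase activity, run while confirming APOBEC3A inhibitors.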
Assay [3] has as its target T1, Kappa-type opioid receptor (Homo sapiens, UniProt P41145). The class given is functional.
The target of a further assay is Beta-galactosidase (Escherichia coli, UniProt Q8VNN2). The class given is functional.
Chain of Beta-galactosidase (Q8VNN2 whole entry): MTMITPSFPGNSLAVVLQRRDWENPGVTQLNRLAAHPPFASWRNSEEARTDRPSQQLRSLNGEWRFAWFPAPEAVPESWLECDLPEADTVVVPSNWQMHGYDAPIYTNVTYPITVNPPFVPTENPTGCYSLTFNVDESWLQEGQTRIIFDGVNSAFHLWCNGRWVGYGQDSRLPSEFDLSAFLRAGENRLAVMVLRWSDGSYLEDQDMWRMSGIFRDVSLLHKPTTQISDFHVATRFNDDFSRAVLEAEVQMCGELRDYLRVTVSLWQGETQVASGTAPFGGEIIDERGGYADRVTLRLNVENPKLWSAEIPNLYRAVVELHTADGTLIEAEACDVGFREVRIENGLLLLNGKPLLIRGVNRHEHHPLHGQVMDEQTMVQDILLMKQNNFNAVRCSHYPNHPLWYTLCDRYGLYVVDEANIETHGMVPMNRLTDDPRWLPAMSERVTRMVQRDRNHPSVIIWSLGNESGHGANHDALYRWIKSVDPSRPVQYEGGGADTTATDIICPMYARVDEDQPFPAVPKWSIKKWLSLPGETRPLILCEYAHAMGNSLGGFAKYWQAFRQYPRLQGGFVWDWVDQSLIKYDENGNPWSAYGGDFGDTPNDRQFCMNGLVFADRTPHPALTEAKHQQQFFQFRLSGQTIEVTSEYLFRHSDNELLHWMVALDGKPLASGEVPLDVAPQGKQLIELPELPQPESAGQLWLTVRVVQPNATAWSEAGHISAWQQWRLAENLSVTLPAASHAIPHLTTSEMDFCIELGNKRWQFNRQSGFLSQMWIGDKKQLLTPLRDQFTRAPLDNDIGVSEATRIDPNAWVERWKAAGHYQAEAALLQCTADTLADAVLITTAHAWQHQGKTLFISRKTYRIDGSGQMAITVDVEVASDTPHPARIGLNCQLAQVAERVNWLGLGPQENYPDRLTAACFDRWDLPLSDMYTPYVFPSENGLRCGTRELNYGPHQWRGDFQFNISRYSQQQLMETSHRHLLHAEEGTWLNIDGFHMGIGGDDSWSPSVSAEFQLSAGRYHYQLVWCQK
Assay [4] concerns the target T1, Kappa-type opioid receptor. The class given is functional. This is another data set of the same source.
The nature of assay [5]: microbe, parasite or virus in culture. Particulars: Mycobacterium tuberculosis. The format is functional.
Assay [6] in a line: THP-1 cell cytotoxicity, dose response, cytotoxicity control for non-replicating M. tuberculosis project (AID 489025). The class given is functional.
A short description of assay [7]: HepG2 cell cytotoxicity, dose response, cytotoxicity control for non-replicating M. tuberculosis project (AID 489018). The class given is functional. The settings on record: Mycobacterium tuberculosis.
The nature of assay [8]: Vero E6 cell cytotoxicity, dose response, cytotoxicity control for non-replicating M. tuberculosis project, secondary assay (AID 492998). The class given is functional, VeroE6. Particulars: Vero C1008.
Another assay in a line: cells. The format is functional.
Assay [9] deals with T2, Mannose-6-phosphate isomerase (Homo sapiens, UniProt P34949).
T2 sequence (P34949 whole entry): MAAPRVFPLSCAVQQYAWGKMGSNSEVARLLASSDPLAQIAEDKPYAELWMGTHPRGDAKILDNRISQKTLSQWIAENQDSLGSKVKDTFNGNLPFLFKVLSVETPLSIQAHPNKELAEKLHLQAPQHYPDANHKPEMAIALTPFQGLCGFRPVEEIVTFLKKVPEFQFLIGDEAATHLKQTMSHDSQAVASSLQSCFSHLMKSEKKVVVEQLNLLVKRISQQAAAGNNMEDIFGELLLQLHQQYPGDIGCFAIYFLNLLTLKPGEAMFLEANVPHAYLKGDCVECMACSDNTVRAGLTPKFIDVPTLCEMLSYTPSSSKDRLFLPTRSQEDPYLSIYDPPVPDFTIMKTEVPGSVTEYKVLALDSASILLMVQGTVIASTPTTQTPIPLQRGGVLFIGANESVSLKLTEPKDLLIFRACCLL
The assay can be described thus: MPI inhibition at elevated mannose 6-phosphate – biochemical, fluorescence intensity, high mannose 6-phosphate, primary screen (AID 1220).

Assay [10] addresses 1-acylglycerol-3-phosphate O-acyltransferase ABHD5/Perilipin-5 (Homo sapiens, UniProt Q00G26+Q8WTS1). Description: Luminescence-based biochemical high throughput dose response assay for inhibitors of the interaction of the lipase co-activator protein, abhydrolase domain containing 5 (ABHD5) with perilipin-5 (MLDP; PLIN5) (2K validation set). [Related pubchem assays (depositor defined):AID493035, AID493241].

In the next assay the target is Perilipin-1/ABHD5 (Homo sapiens, UniProt O60240+Q8WTS1). The assay can be described thus: Luminescence-based biochemical high throughput dose response assay for inhibitors of the interaction of the lipase co-activator protein, abhydrolase domain containing 5 (ABHD5) with perilipin-1 (PLIN1) (2K validation set). [Related pubchem assays (depositor defined):AID493027, AID493057].

The next assay has as its target Genome polyprotein (dengue virus type 2, UniProt P29990). The assay can be described thus: flavivirus cap methylation enzyme inhibition – biochemical, confirmation dose response, primary screen (AID 588689). The format is functional.
Assay [11] deals with T3, Polyadenylate-binding protein 1 (Homo sapiens, UniProt P11940). Description: MLLE binding blockers, Cy5 peptide tracer – biochemical, fluorescence polarization, Cy5-PAM2 peptide, secondary, miRNA deadenylation inhibitor project, dose response (AID 602260). The format is functional. The settings on record: read-out: IC50_Mean. For orientation: In fluorescence polarisation assays a small probe gives low polarisation when free and higher when bound to something large.
T3 sequence (P11940 whole entry): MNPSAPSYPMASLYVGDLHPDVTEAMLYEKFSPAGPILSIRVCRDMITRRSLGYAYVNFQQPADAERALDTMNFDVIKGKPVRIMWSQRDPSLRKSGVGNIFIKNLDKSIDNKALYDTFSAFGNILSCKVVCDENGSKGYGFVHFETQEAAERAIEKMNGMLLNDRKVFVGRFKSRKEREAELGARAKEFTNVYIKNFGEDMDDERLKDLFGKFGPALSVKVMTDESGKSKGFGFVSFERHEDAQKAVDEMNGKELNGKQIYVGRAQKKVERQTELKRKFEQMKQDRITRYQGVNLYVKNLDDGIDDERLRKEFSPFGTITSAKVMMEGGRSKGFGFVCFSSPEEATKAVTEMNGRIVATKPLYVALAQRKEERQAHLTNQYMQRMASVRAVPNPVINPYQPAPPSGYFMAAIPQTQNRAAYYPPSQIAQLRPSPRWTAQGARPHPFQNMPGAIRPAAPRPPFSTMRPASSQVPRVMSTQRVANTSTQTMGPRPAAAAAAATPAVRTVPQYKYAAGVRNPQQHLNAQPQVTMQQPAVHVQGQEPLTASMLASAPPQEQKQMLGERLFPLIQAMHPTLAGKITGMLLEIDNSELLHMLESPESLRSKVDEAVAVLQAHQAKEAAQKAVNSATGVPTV

Assay [12] deals with T3, Polyadenylate-binding protein 1. Description: MLLE domain peptide-binding blockers, IC50 – biochemical, fluorescence polarization, FITC-PAM2 peptide, dose response (AID 602259). The class given is functional. Particulars: read-out: IC50_Mean.
A further assay concerns the target Mu-type opioid receptor (Homo sapiens, UniProt P35372). The assay can be described thus: SAR Analysis of Antagonists of the MOR Receptor using an Image-Based Assay - Set 3. [Related pubchem assays (depositor defined):AID1777, AID1785, AID1786, AID1966, AID2133, AID2136, AID2284, AID2285, AID2420]. The format is functional.
Assay [13] concerns the target Delta-type opioid receptor (Homo sapiens, UniProt P41143). The assay can be described thus: SAR Analysis of Antagonists of the DOR Receptor using an Image-Based Assay - Set 3. [Related pubchem assays (depositor defined):AID1777, AID1785]. The format is functional.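 Note: U2OS cells expressing DOR1 and beta-arrestin GFP stimulated with 100 nM SNC80; imaging of GFP-tagged beta-arrestin moving into spots after receptor activation.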
Assay [14] has as its target T1, Kappa-type opioid receptor. Description: SAR analysis of small molecule antagonists of the kappa opioid receptor via a luminescent beta-arrestin assay - Set 3. [Related pubchem assays (depositor defined):AID1777, AID1778, AID1785, AID1786, AID1966, AID2133, AID2136, AID2285, AID2495]. The class given is functional.
Assay [15] deals with T1, Kappa-type opioid receptor. The assay can be described thus: SAR analysis of Antagonists of the Kappa Opioid Receptor (KOR) using an Image-Based Assay - Set 3. [Related pubchem assays (depositor defined):AID1777, AID1785]. The class given is functional.
In assay [16] the target is Alkaline phosphatase, placental type (Homo sapiens, UniProt P05187). The assay can be described thus: human placental alkaline phosphatase inhibition – biochemical, luminescence, confirmation (AID 1512). The class given is functional.
Chain of Alkaline phosphatase, placental type (P05187 whole entry): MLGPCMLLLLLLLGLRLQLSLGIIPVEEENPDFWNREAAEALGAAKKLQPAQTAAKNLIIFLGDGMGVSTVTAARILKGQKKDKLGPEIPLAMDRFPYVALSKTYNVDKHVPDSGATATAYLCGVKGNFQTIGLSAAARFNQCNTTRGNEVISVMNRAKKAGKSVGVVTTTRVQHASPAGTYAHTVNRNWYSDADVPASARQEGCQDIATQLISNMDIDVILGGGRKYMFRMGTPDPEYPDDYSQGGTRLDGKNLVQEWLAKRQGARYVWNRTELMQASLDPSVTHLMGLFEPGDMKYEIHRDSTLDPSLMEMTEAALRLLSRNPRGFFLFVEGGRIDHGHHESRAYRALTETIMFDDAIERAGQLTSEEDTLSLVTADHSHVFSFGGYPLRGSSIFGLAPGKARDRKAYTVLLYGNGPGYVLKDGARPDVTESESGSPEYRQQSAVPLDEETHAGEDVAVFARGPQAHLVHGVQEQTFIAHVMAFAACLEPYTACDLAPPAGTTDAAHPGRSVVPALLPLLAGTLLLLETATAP
Assay [17] deals with T4, Alkaline phosphatase, tissue-nonspecific isozyme (Homo sapiens, UniProt P05186).
T4 sequence (P05186 whole entry): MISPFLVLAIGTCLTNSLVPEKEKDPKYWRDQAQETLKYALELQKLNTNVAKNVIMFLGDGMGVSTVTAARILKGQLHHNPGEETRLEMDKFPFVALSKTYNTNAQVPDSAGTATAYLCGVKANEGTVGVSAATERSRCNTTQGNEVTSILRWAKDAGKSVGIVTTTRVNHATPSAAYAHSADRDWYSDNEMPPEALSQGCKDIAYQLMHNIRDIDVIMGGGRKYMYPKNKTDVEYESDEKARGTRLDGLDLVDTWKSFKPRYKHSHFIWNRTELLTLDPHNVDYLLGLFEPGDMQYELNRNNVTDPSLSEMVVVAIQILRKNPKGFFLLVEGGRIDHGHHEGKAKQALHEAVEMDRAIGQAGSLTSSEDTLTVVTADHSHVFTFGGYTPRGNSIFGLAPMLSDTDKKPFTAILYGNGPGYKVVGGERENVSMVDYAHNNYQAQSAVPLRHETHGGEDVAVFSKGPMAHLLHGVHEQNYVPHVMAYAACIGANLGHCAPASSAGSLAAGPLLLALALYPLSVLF
Description: potency against alkaline phosphatase TNAP – biochemical, luminescent, dose response, SAR follow-up (AID 1056).

Assay [18] has as its target T5, Tyrosine-protein phosphatase non-receptor type 7 (Homo sapiens, UniProt P35236).
T5 sequence (P35236 whole entry): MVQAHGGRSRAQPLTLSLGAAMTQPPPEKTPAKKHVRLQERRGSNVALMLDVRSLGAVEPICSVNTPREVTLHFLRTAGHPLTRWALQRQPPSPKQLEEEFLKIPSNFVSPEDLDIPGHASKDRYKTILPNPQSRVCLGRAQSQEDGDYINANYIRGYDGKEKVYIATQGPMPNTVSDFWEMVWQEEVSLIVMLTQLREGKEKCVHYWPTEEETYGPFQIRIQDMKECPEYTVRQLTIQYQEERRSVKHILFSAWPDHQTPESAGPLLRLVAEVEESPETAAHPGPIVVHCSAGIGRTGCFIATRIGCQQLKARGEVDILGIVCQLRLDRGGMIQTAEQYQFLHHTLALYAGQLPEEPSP
Description: redox-active compounds inhibiting HePTP phosphatase – biochemical, fluorescence, mechanism study (AID 2068). The format is functional.

Assay [19] concerns the target T6, Runt-related transcription factor 1/Core-binding factor subunit beta (Homo sapiens, UniProt Q01196+Q13951). The assay can be described thus: disruptors of Runt domain/CBFb-SMMHC interaction – biochemical, FRET, Cerulean-Runt, Venus-CBFb-SMMHC, uHTS, […] (AID 1434). The class given is protein assay.
The target in assay [20] is T6, Runt-related transcription factor 1/Core-binding factor subunit beta. The assay can be described thus: Runt domain/CBFb-SMMHC interaction disruptors – biochemical, TR-FRET (AID 1438). The class given is protein assay. (In general: In TR-FRET formats the signal depends on donor and acceptor labels being close together.)
Assay [21] deals with Type-1 angiotensin II receptor (Homo sapiens, UniProt P30556). The assay can be described thus: agonist activity at AGTR1 – cell-based, uHTS hits, selectivity assay for APJ receptor agonist project, dose response (AID 488865).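 Note: beta-arrestin recruitment to AT1 measured by enzyme fragment complementation luminescence.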 The class given is functional.
Chain of Type-1 angiotensin II receptor (P30556 whole entry, the tested form may be a part): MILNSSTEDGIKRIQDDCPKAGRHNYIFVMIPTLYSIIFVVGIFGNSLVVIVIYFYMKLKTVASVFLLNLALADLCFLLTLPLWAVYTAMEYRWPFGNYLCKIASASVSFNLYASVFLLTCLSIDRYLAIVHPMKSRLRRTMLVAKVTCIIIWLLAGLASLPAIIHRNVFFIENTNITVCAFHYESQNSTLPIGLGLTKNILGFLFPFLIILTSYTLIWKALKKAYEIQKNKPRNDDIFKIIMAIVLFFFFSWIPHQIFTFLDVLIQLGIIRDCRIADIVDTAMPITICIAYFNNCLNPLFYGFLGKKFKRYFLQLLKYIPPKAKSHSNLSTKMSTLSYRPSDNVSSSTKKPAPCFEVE
The target in assay [22] is Low molecular weight phosphotyrosine protein phosphatase (Homo sapiens, UniProt P24666). The format is functional. The settings on record: read-out: IC50_Mean.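 Note: Dose-response confirmation assay measuring inhibition of LMPTP enzyme activity by fluorescence intensity read-out.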
Assay [23] has as its target Eukaryotic translation initiation factor 4H (Homo sapiens, UniProt Q15056). The assay can be described thus: inhibitors of translation initiation factor eIF4H – SAR follow-up (AID 435011). The class given is functional.
Assay [24] concerns the target T3, Polyadenylate-binding protein 1. The assay can be described thus: PABP inhibition in translation initiation, SAR follow-up (AID 435018). The format is functional.

T1 sequence (P41145 whole entry): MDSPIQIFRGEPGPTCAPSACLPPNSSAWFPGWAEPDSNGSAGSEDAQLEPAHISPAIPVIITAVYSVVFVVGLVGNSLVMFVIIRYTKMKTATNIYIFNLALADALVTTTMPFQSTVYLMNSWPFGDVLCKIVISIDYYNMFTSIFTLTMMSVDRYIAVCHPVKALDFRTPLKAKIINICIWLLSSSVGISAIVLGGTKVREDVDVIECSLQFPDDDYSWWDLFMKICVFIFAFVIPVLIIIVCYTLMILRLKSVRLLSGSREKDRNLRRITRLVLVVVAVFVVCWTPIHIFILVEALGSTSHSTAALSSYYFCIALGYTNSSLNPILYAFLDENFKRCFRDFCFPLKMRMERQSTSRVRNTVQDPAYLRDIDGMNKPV
T6 sequence (Q01196 whole entry, the tested form may be a part): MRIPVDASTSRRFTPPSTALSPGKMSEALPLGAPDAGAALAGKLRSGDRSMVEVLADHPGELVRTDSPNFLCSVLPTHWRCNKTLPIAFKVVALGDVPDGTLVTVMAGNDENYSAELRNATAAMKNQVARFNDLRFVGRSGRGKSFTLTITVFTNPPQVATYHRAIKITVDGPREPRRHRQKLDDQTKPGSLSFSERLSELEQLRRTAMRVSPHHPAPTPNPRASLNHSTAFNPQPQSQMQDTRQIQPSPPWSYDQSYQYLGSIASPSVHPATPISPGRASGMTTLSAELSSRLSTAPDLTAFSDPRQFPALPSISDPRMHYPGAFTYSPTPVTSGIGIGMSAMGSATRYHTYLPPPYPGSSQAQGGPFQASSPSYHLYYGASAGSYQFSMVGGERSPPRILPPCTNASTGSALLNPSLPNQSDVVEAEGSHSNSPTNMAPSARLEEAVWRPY
T6 sequence (Q13951 whole entry, the tested form may be a part): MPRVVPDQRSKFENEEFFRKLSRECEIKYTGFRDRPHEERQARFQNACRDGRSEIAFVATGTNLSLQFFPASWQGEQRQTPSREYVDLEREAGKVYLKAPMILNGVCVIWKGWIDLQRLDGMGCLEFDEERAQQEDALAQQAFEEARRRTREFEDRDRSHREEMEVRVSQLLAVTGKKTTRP
Chain of Delta-type opioid receptor (P41143 whole entry): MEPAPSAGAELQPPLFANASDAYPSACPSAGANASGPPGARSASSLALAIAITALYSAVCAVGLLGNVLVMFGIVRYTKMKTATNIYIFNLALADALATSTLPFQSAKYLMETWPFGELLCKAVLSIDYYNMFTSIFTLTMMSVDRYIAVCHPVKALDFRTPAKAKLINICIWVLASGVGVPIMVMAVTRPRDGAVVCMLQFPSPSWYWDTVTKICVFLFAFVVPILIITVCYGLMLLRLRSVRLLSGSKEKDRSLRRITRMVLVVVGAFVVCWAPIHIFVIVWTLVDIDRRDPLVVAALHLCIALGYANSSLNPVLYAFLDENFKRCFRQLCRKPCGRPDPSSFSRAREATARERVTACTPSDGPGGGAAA
Chain of DNA dC->dU-editing enzyme APOBEC-3A (P31941 whole entry): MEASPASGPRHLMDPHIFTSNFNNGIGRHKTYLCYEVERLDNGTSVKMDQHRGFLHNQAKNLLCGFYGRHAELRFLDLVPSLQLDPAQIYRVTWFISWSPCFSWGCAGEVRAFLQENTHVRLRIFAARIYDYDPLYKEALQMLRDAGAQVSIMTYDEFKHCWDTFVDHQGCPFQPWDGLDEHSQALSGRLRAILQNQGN
Chain of 1-acylglycerol-3-phosphate O-acyltransferase ABHD5/Perilipin-5 (Q00G26 whole entry, the tested form may be a part): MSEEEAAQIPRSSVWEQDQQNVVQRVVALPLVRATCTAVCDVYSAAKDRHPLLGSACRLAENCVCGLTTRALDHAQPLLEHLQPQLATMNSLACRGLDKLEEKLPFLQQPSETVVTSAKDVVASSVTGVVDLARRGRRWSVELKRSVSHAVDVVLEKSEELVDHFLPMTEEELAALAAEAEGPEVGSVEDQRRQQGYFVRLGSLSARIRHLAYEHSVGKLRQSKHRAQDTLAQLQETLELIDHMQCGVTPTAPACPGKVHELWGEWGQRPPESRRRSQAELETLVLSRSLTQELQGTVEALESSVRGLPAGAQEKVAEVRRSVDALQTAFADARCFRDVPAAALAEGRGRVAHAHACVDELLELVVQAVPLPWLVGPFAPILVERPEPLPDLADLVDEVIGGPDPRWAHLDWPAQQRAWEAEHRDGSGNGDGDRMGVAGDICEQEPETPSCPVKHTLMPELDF
Chain of 1-acylglycerol-3-phosphate O-acyltransferase ABHD5/Perilipin-5 (Q8WTS1 whole entry, the tested form may be a part): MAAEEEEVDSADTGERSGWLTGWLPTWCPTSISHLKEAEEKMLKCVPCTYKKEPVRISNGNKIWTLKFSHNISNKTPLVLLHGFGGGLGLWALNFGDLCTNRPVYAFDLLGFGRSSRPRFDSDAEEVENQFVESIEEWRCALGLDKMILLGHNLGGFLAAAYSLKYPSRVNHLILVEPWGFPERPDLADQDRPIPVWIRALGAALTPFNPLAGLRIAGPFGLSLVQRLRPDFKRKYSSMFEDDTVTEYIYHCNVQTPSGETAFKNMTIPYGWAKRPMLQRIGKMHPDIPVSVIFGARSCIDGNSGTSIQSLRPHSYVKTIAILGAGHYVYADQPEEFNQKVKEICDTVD

As to `Cc1nc(O)c(C#N)c(C)c1CCC(=O)Nc1cc(S(C)(=O)=O)ccc1Cl`, the figures for the IC50 in [1] and in assay [2] were 9.97 µM (active) and 11.7 µM (active), respectively.

For the molecule `CC/C(=N\Nc1ccnc2cc(Cl)ccc12)c1ccc(O)cc1`, the IC50 is 4.88 µM (active) in [3] and 2.46 µM in [4]. Also, at Beta-galactosidase, the EC50 is > 31.5 µM (inactive).

For the molecule `COc1cccc(-c2nnc(NC(=O)c3ccc(S(=O)(=O)N4CCOCC4)cc3)o2)c1`, the CC50 was 19.7 µM (active) in [5], 8.51 µM (active) in [6], 13.9 µM (active) in assay [7] and 7.2 µM (active) in assay [8]. For the same molecule, in the assay “cells”, the IC50 was 22.8 µM (active).

With `COc1cc(/C=C2\C(=O)NC(=O)N(c3ccccc3)C2=O)c([N+](=O)[O-])cc1OC`, the IC50 in assay [9] is > 50 µM (not active); in [10], 3.41 µM (active); on Perilipin-1/ABHD5 it was 3.29 µM (active); on Genome polyprotein, 17.3 µM (active); in assay [11], 53.9 µM (inactive); in [12] it was 42.8 µM (inactive).

For the molecule `O=C(Cn1c(=O)c2cccn2c2ccc(F)cc21)NCCCN1CCN(c2ccc(F)cc2)CC1`, the IC50 at Mu-type opioid receptor is > 32 µM (inactive); in assay [13], > 32 µM (inactive); in [14], > 20 µM (inactive); in [15] it was 14.6 µM (inactive).

In the case of `COC(=O)c1cc(-c2c[nH]c3ccccc23)[nH]n1`, the IC50 in assay [16] is > 100 µM (inactive); in assay [17] it was 1.67 µM (active) and 906 nM (active).

For `CCOC(=O)CCNC(=O)Nc1ccc2nc(-c3ccco3)c(-c3ccco3)nc2c1`, the IC50 in [18] was 0.683 µM (active).

Turning to `Cc1cc(C)cc(Oc2nc3c(C)cccn3c(=O)c2/C=C(\C#N)C(=O)NC2CCS(=O)(=O)C2)c1` (centres undefined), the results for the IC50 in assay [19] and in assay [20] were 4.95 µM (active) and 68 µM (inactive), respectively.

On to `COc1cc2c(cc1NC(=O)c1cccc([N+](=O)[O-])c1)oc1ccccc12`, for which, in assay [21], the EC50 was > 100 µM (inactive). In assay [22], the IC50 is 14.2 µM (active).

On to `Cc1ccccc1NC(=O)CSc1ccc(-c2ccco2)nn1`, for which the IC50 in assay [23] and in [24] was > 100 µM (inactive) in each case.

(Values after ChEMBL document CHEMBL1201862, “PubChem BioAssay data set” (2004).)
